Data set [1] deals with 143B cells. Nature of the data set: Cytotoxicity in DMEM without sodium pyruvate and uridine, 143B cells. In kind it is cell-based. Conditions: 100 nM, 500 nM or 1 μM, 30 hours or 1 week. How it is done:
(§1) 143B cells or HeLa cells were cultured in a medium prepared by adding 1 μM of ML1 polyamide to a 10% FBS-added DMEM (free of sodium pyruvate and uridine) wherein respiratory chain-defective cells are inviable. The synthesis of the respiratory chain proteins in mitochondria is essential to life-support, and only a slight dysfunction thereof results in cell death.
(§2) 143B cells or HeLa cells were cultured for a week in normal DMEM, complete DMEM (containing 0.1 mg/mL of sodium pyruvate, and 50 μg/mL of uridine), complete DMEM with the ML1 polyamide, or DMEM with the ML1 polyamide, and survival or death was observed.
(§3) In the culture of 143B cells, the MLI polyamide was added at the concentration of 100 nM, 500 nM, or 1 μM, whereas in the culture of Hela cells, the MLI polyamide was added at the concentration of 1 μM.

Data set [2] deals with 2SD cybrid cells (MELAS cybrid cells). Nature of the data set: Replication of wild-type mtDNAs in MELAS cybrid cells (PCR-RFLP). The class given is cell-based. Conditions: for increase level of wild-type mtDNAs in comparison with control: long-term (7, 15 or 35 days); for increase of wild-type mtDNAs: 35 days. How it is done:
The MLI polyamide was given to the cultivated MELAS cybrid cells to confirm if the wild-type mtDNAs were positively reproduced in cells.
2SD cybrid cells were seeded on a 10 cm dish, and the MLI polyamide dissolved in 50% DMSO was added to the complete DMEM so that a final concentration thereof became 1 μM, 5 μM, or 10 μM. The medium to which the MLI polyamide was added was replaced every third day. In the control experiments, DMSO with the same diluted rate was added to the medium. The polyamide solution in 50% DMSO solution was diluted with ddH2O so that the concentration of DMSO in the medium became 0.1% or less, or 0.05% at a maximum.
Total DNAs were extracted from the cybrid cells treated by the MLI polyamide 14 days later, PCR-RFLP was then carried out, the bands were quantitatively analyzed by microchip electrophoresis (MCE-202 MultiNA; Shimadzu Corporation), and a mutation rate of the cybrid cells was analyzed.
Further, long-term effects were analyzed when the concentration of the MLI polyamide in the medium was 1 μM, 500 nM, or 100 nM. Total DNAs were extracted from the cybrid cells 7 days, 15 days, or 35 days later, PCR-RFLP was then carried out, electrophoresis was performed on 2% agarose gel (1×TAE), and an increase level of the wild-type mtDNAs was measured.

In data set [3] the test system is wild-type dsDNA (normal (wild-type) mtDNA template, 21 bases containing the 3243rd base). Nature of the data set: EMSA (electrophoretic mobility shift assay), binding to wild-type oligo-DNA. Conditions: 10^−4 M polyamide, 1 hour at 37° C. How it is done:
(§4) In this Example, a binding specific to the base sequence was confirmed in vitro between the ML1 polyamide and the target. The assay was carried out in EMSA (electrophoretic mobility shift assay). The wild-type oligo-DNA with 21 bases containing the 3243rd base on which the A3243G mutation exists and the A3243G mutation oligo-DNA thereof were produced. A sense-stranded DNA with FITC bound at 5′-end and an antisense-stranded DNA were thermally denatured, slowly cooled, and annealed to obtain dsDNAs having the following sequence:
(§5) To dsDNA (50 pmol/10 μL), 40 μL of ddH2O was added and the whole was diluted to 1 pmol/μL. 4 pmol of the resulting dsDNA were mixed with the MLI polyamide solution so that the concentration became 10^−4M, and incubated for 1 hour at 37° C. Then, the sample was mixed with a loading buffer and applied on 20% non-denatured acrylamide gel (0.5×TBE) which was pre-run for 10 minutes at 350 V. An electrophoresis was carried out at 4′C and 100 V until BPB reached ¾ of the lower end of the gel, and a shift of the band was detected by LAS-3000 (Fuji Film).
(§6) The composition of the non-denatured acrylamide gel used in EMSA is shown as below: […]

The subject of data set [4] is A3243G mutant dsDNA (A3243G mutation mtDNA template). Nature of the data set: EMSA (electrophoretic mobility shift assay), binding to A3243G mutation oligo-DNA. The conditions noted are these: 10^−4 M polyamide, 1 hour at 37° C. How it is done:
as §4, §5, §6
(In EMSA bound probe runs differently from free probe, usually more slowly.)

Data set [5] relates to HeLa cells. Nature of the data set: Cytotoxicity in DMEM without sodium pyruvate and uridine, HeLa cells. In kind it is cell-based. The conditions noted are these: 1 μM, 30 hours or 1 week. Here is the method: as §1, §2, §3
[6] abbreviates: 1 μM, 14 days, PCR-RFLP, microchip electrophoresis.
The mark [7] stands for this setting: 5 μM, 14 days, PCR-RFLP, microchip electrophoresis.

The source of these data is US10357478B2, “Polyamide compound and pharmaceutical composition for treating mitochondrial genetic diseases” (Triplex Therapeutics Inc., priority 2011, dated 2019).

For the compound `CC(=O)Nc1cc(C(=O)Nc2cc(C(=O)Nc3cc(C(=O)NCCC(=O)Nc4cn(C)c(C(=O)Nc5cc(C(=O)Nc6cc(C(=O)NCCCC(=O)Nc7cn(C)c(C(=O)Nc8cn(C)c(C(=O)Nc9cc(C(=O)NCCC(=O)Nc%10cn(C)c(C(=O)Nc%11cc(C(=O)Nc%12cn(C)c(C(=O)NCCC(=O)NCCCN(C)C)n%12)n(C)c%11)n%10)n(C)c9)n8)n7)n(C)c6)n(C)c5)n4)n(C)c3)n(C)c2)n(C)c1` [ML1 polyamide, Ac-Py-Py-Py-β-Im-Py-Py-γ-Im-Im-Py-β-Im-Py-Im-β-Dp], the “morphological changes or cell cytotoxicity” value in data set [1] and in data set [5] was “did not show any morphological changes or cell cytotoxicity” each time. Moreover, the “increase level of wild-type mtDNAs in comparison with control” value in data set [2] (100 nM, PCR-RFLP, agarose gel) was “grossly visible increase level”; in data set [2] (500 nM, PCR-RFLP, agarose gel) it was “grossly visible increase level”; in data set [2] (1 μM, PCR-RFLP, agarose gel), “grossly visible increase level”. In addition, the “increase level of wild-type mtDNA” value in data set [2] (500 nM, 15 days, agarose gel) is listed as “significant increase level”; in data set [2] (setting [6]) it was “increase levels of wild-type mtDNA”; in data set [2] (1 μM, 14 days, PCR-RFLP, microchip electrophoresis, listed as MLI polyamide), “concentration-dependent increase level”; in data set [2] (setting [7]) it was “increase levels of wild-type mtDNA”; in data set [2] (5 μM, 14 days, PCR-RFLP, microchip electrophoresis, listed as MLI polyamide), “concentration-dependent increase level”. Besides, the “increase of wild-type mtDNAs” value in data set [2] (500 nM, agarose gel) is listed as “continuous increase level”; in data set [2] (500 nM, agarose gel, listed as MLI polyamide) it was “continuous increase”. In addition, the “mutation rate of the cybrid cells” value in data set [2] (setting [6]) and in data set [2] (setting [7]) was “decrease of the mutation rate” throughout. The entries for the “shift of the band of wild-type dsDNA in EMSA” value in data set [3] and in data set [3] (listed as MLI polyamide) were “significantly shifted” and “clear shift of the band”, respectively. Also, the “shift of the band of A3243G mutant dsDNA in EMSA” value in data set [4] was “no significant shift”; in data set [4] (listed as MLI polyamide), “not clearly observed”.
